Assay results: paper PMC9101373, “Design of DNA Intercalators Based on 4-Carboranyl-1,8-Naphthalimides: Investigation of Their DNA-Binding Ability and Anticancer Activity” (International Journal of Molecular Sciences, 2022)

Experiments:
[1] = tested on: HepG2 cells; assay: Cell cycle analysis by flow cytometry (PI staining); format: cell-based, human; conditions: HepG2, 24 h at IC50; for cells in G2M phase: control 11.5%
Experimental: To reveal the mechanism underlying the inhibitory effect of the obtained compounds on cellular viability, we examined cell cycle regulation. For this purpose, HepG2 cells were exposed to compounds 54–61 (54 (5.5 µM), 55 (3.4 µM), 56 (12 µM), 57 (3.1 µM), 58 (3.9 µM), 59 (5.4 µM), 60 (31 µM), and 61 (4.8 µM)). The chosen concentration of each of these compounds corresponded to their total IC50 value.
After exposure, HepG2 cells were examined by flow cytometry, and their DNA content was measured by PI staining. […] Compounds 54–59 caused arrest in the G1/G0 phase since we observed a higher number of cells in that phase as compared to control (Figure 4 and Figure S297, ESI). […] Compounds 60 and 61 arrested cell cycle in the G2M phase, where the accumulation of cells was observed (>18% vs. 11.5% in control cells) (Figure 4 and Figure S297, ESI). In comparison, mitonafide and pinafide induced cell cycle arrest at the S and G2M phases, respectively. […] In contrast, 1,8-naphthalimide products with carborane modification at position 3 caused cell cycle arrest at the G2M phase, similar to pinafide and compounds 60 and 61 from this study.
HepG2 (5 × 10^5) cells were seeded onto 6-well cell culture plates and incubated for 24 h in a fully supplemented EMEM medium (Corning®) with addition of the analyzed compounds at a concentration corresponding to their total IC50 values. DNA content was determined by flow cytometry with PI (Sigma-Aldrich, Steinheim, Germany) staining. After incubation, the cells were trypsinized and washed twice with PBS (1 mL). In the next step, the cells were fixed with an ice-cold 80% ethanol. After 1 h incubation at 4 °C, the cells were stored at −20 °C for further analysis. After double wash with PBS, the fixed cells were stained with PI (50 μg/mL) with RNAse A (100 μg/mL) for 30 min at 37 °C in the dark. PI fluorescence was measured by FACSCalibur (Becton Dickinson), and data were analyzed by FlowJo software. […]

[2] = tested on: calf thymus DNA (ct-DNA); assay: UV–vis absorption titration with ct-DNA, binding constant Kb; conditions: 10 µM compound, ct-DNA 1.25–15 µM
From the text: The interaction of 1,8-naphthalimides bearing carborane clusters with ct-DNA was also studied by UV–vis absorption titration to better understand the mode of interaction and binding strength. For compounds interacting with DNA by intercalation, bathochromic and hypochromic effects are observed in the absorption spectra. The spectral changes observed in the electronic absorption of 6–11, 16–19, 36–43, and 54–61 in the absence and presence of ct-DNA are illustrated in Figures S271–S296 (ESI). Progressive addition of ct-DNA at the concentration of 1.25–15 µM to a fixed amount of modified naphthalic anhydride or naphthalimide (10 µM concentration) decreased absorbance for almost all the tested modified conjugates, except conjugates 14, 15, and 22–27 for which changes in absorbance were not observed. […] Hypochromicity (10–56%) was also observed for all conjugates, with the highest value for compound 40.
To compare the DNA-binding strength of the tested conjugates, we calculated the binding constant Kb, as described in the Materials and Methods section. […] For conjugates 14, 15, and 22–27, the Kb value could not be determined due to the lack of noticeable changes in the UV spectra.
The measurements were performed by adding aliquots of DMSO stock solution of the tested compounds to the buffer solution (pH 7.4, 20 mM, 50 mM NaCl, Tris-HCl buffer, DMSO content of the final solutions = 0.40–0.61%) to the final concentration of 10 µM. The tested compounds were incubated 5 min, with increasing concentrations ranging from 0 to 15 µM of ct-DNA at 37 °C, then the UV–vis absorption spectra, between 310 and 500 nm (310–550 nm for compounds 36–43 and 54–61), were recorded using a GBC Cintra10 UV–vis spectrometer (Dandenong, Australia) equipped with a GBC Thermocell Peltier Power Supply (Dandenong, Australia) using a 1 cm path length cell. The binding constant was calculated according to the following equation [53]: A0/A−A0=εG/εH−G−εG +εG/εH−G−εG ×1/Kb[DNA] where Kb is the binding constant, A0 and A are the absorbance of the free tested compound, and the apparent one, εG and εH−G are their coefficient, respectively, and [DNA] is the concentration of [DNA] in the base pair. The slope to intercept ratio of the plot between A0/A − A0 versus 1/[DNA] yielded the binding constant.

Substance | cells in G2M phase [1] [%] | bathochromic shift [2] | other results
N-[2-N-Pyrrolidinyl)ethyl]-4-[(6-(2-(1,7-dicarba-closo-dodecaborane-1-yl)-ethylamino)hexyl)amino]-1,8-naphthalimide [Compound 61] | > 18 |  | 
N-[2-(Dimethylamino)ethyl]-4-[(2-(2-(1,7-dicarba-closo-dodecaborane-1-yl)-ethylamino)ethyl)amino]-1,8-naphthalimide [Compound 55] |  | 1–2 nm | 
N-[2-(Dimethylamino)ethyl]-4-[(6-(2-(1,7-dicarba-closo-dodecaborane-1-yl)-ethylamino)hexyl)amino]-1,8-naphthalimide [Compound 59] |  | 1–2 nm | 
N-[2-(Dimethylamino)ethyl]-4-[(6-(2-(1,2-dicarba-closo-dodecaborane-1-yl)-ethylamino)hexyl)amino]-1,8-naphthalimide [Compound 58] |  |  | G0/G1 cell fraction ([1]; control 60.1%): 70.4%
N-[2-N-Pyrrolidinyl)ethyl]-4-[(6-(2-(1,2-dicarba-closo-dodecaborane-1-yl)-ethylamino)hexyl)amino]-1,8-naphthalimide [Compound 60] | > 18 |  | 
